What was measured:
[1] = test system: mice with glucose-induced hyperglycemia; experiment: Hypoglycemic effect of orally administered compounds in mice with glucose-induced hyperglycemia; assay type: in vivo, Kun Ming male mice; details: glucose 2 g/10 ml/kg orally 15 min later, fasted mice
Experimental: In the following biological experiments, the hypoglycemic activity of the above compounds was chiefly observed in hyperglycemic mice. Taking 3,3′,5′-trihydroxy-4′-methoxystilbene-3-O-β-D-glucoside (rhaponticin) as a positive control drug, the hypoglycemic activity of these compounds were preliminarily evaluated.
Kun Ming male mice (certification: Medical Animal No. D01-3023) with body weight of 21-33 g were used in the experiments. After fasting and feeding water for 16 hours, the compounds were administered to the mice. The candidate compounds were formulated with dimethyl sulfoxide (2.5 ml/kg), and administered to the mice intragastrically. After fifteen minutes, glucose (2 g/10 ml/kg) was administered orally. One hour later, one drop of blood was collected by cutting a segment of tail and the blood sugar level was monitored with a blood sugar monitor manufactured by Johnson Company, USA, by using a test paper containing glucose oxidase. For the mice of the control group, dimethyl sulfoxide ([…]) and glucose (2 g/10 ml/kg) were given intragastrically.

[2] = Table 1, 400 mg/kg intragastrically, DMSO control 9.50 ± 1.06
[3] = Table 2, 400 mg/kg intragastrically, DMSO control 8.53 ± 0.76
[4] = Table 3, 400 mg/kg intragastrically, DMSO control 7.80 ± 1.33

SMILES	Blood sugar level one hour after administration M ± SD [1, 2] [mmol/L]	Blood sugar level one hour after administration M ± SD [1, 3] [mmol/L]	also measured
COc1cc(/C=C\c2ccccc2)ccc1O [Example 1, cis-1-phenzyl-2-(3′-methoxy-4′-hydroxy-phenyl)ethene]	7.62 ± 1.59		
COc1ccc(/C=C(/C(=O)O)c2ccccc2)cc1OC(C)=O [Example 2, cis-2-phenyl-3-(3′-acetoxy-4′-methoxy-phenyl)acrylic acid]	8.20 ± 0.99		
COc1cc(/C=C(/C(=O)O)c2ccccc2)ccc1OC(C)=O [Example 3, cis-2-phenyl-3-(3′-methoxy-4′-acetoxy-phenyl)acrylic acid]	7.30 ± 0.68	7.85 ± 0.16	
COc1cc(/C=C(/C(=O)O)c2ccccc2)ccc1O [Example 4, cis-2-phenyl-3-(3′-methoxy-4′-hydroxy-phenyl)acrylic acid]		7.30 ± 2.21	
COc1ccc(/C=C(/C(=O)O)c2ccccc2)cc1C(=O)O [Example 5, cis-2-phenyl-3-(3′-carboxy-4′-methoxy-phenyl)acrylic acid]		8.50 ± 1.01	
COc1cc(/C=C(/C(=O)NC2CCCCC2)c2ccccc2)ccc1OC(C)=O [Example 6, cis-2-phenyl-3-(3-methoxy-4′-acetoxy-phenyl)-N-cyclohexyl acrylamide]		5.46 ± 0.86	
COc1cc(C=C(C(=O)NCc2ccco2)c2ccccc2)ccc1OC(C)=O [Example 7, cis-2-phenyl-3-(3′-methoxy-4′-acetoxy-phenyl)-N-(methylenefuran)acrylamide]			Blood sugar level one hour after administration M ± SD [1, 4]: 6.95 ± 0.61 mmol/L
COc1cc(C=C(C(=O)N[C@H]2CC[C@@H](C)CC2)c2ccccc2)ccc1OC(C)=O [Example 8, cis-2-phenyl-3-(3′-methoxy-4′-acetoxy-phenyl)-N-(4-methylcyclohexyl)acrylamide]			Blood sugar level one hour after administration M ± SD ([1]; Table 3, 100 mg/kg intragastrically, DMSO control 7.80 ± 1.33): 5.61 ± 1.67 mmol/L; melting point: 136 to 140 °C
COC(=O)/C(=C/c1ccc(OC)c(OC)c1)c1ccccc1 [Example 9, cis-2-phenyl-3-(3′,4′-dimethoxy-phenyl)-methyl acrylate]			Blood sugar level one hour after administration M ± SD [1, 4]: 8.41 ± 0.88 mmol/L
COc1ccc(/C=C/c2cc(O)cc(O[C@@H]3O[C@H](CO)[C@@H](O)[C@H](O)[C@H]3O)c2)cc1O [rhaponticin, 3,3′,5′-trihydroxy-4′-methoxystilbene-3-O-β-D-glucoside, reference compound]	9.14 ± 1.90		Blood sugar level one hour after administration M ± SD ([1]; Table 1, 800 mg/kg intragastrically, DMSO control 9.50 ± 1.06): 7.02 ± 1.01 mmol/L
